Experiment [1] has as its system HAECs. Description: Spheroid sprouting assay, HAECs. The format is cell-based, human. As to conditions: VEGF 50 ng/mL. As to the method:
ECs spheroids were generated as described previously (Korff and Augustin, 1998, J Cell Biol 143, 1341-1352). ECs (1000 cells per spheroid) were suspended in EGM-2 medium containing 20% methocel (viscosity: 4000 cps, Sigma) and seeded in non-adherent round-bottom 96-well plates (Sigma). Under these conditions all suspended cells contributed to the formation of a single spheroid. The spheroids were harvested after 24 h embedded into collagen gels. Sprouting was initiated by adding C2C12 CM or EBM-2 medium containing VEGF (50 ng/mL). NMN (0.5 mM), NaHS (0.1 mM), DAPT (20 μM, Cayman Chemical) or SU5416 (10 μM, Sigma) were added to the media wherever mentioned. Angiogenic activity was quantified by measuring the sprout length that had grown out of each spheroid analyzing 8-10 spheroids per group.

The subject of experiment [2] is NAD^+. Description: NAD+ levels in HUVECs. It counts as cell-based, human. As to conditions: increasing doses of NaHS, 24 hrs. The protocol: Levels of NAD^+ and NADH levels were measured in EC and muscle homogenates using commercially available kit (NAD-NADH Glo, Promega) according to manufacturer's instructions. Alternatively, NAD^+ levels in muscle and liver were measured by assay in-house developed method (Uddin et al., 2016, Front Pharmacol 7, 258). In brief, liver and gastrocnemius samples were homogenized in extraction buffer (10 mM Tris-HCl, 0.5% TritonX-100, 10 mM Nicotinamide, pH7.4) and then centrifuged (12,000×g for 5 min at 4° C.), after which an aliquot of supernatant was taken for protein quantification. After phenol:chloroform:isoamylalcohol (25:24:1) and chloroform extractions the supernatant was separated in two aliquots. One was used to measure total NAD. The other aliquot was acidified with HCl, and then neutralized with NaOH on ice to quantify NAD^+. Samples were mixed in a 96-well plate samples were mixed with alcohol dehydrogenase (ADH) at room temperature. Total NADH and NAD^+ were quantified using a Bio-Rad Imark microplate reader.

The subject of experiment [3] is HUVECs. Description: Wound scratch assay, HUVECs. To be noted: 6 h. It counts as cell-based, human. As to the method: ECs were cultured until forming a confluent monolayer and a scratch was made using a 200 μL pipette tip. Then the cells were allowed to migrate+/−NaHS (0.1 mM) and +/−NMN (0.5 mM) in EGM-2 medium for 6 hrs. Images were taken at the same location using a brightfield inverted microscope (Olympus 2467) every 2 h. The area of gap closure was calculated using ImageJ software. In some experiments, HUVECs were transduced with Scr or SIRT1 siRNA and cultured until forming a confluent monolayer. The cells were exposed to H2O2 (150 μM) for 1 h and a scratch was made using a 200 μL pipette tip. Then the cells were allowed to migrate with PBS (vehicle), NaHS (100 μM) and/or NMN (500 μM) in EGM-2 medium for 6 h. Images were taken at the same location using a brightfield inverted microscope (Olympus 2467) every 2 h. The area of gap closure was calculated using ImageJ software.

For experiment [4], the system named is SIRT1. Description: SIRT1 protein levels in HUVECs (Western blot). As to conditions: NaHS 0.1 mM and/or NMN 0.5 mM. It counts as cell-based, human. The protocol:
SDS-PAGE and Western blot analysis were performed according to standard procedures and detected with the ECL detection kit (Bio-rad, Australia). For Western blot analysis antibodies directed against SIRT1 (Sigma), SIRT3 (CST), SIRT6 (SantaCruz), eNOS (Cell Signaling Technology or CST), cleaved Notch1 (CST), total OXPHOS cocktail (Abcam), PGC-1α (Millipore), VEGF (Abcam), VEGFR2 (Abcam), phospho-VEGFR2 (Millipore), Actin (Cell Signaling Technology), Tubulin (Sigma), 14-3-3 (Cell Signaling Technology), GAPDH (SantaCruz) were used. Quantification of band intensities by densitometry was carried out using ImageJ software.

For experiment [5], the system named is HUVECs. Description: Seahorse analysis of oxygen consumption rate. As to conditions: NaHS 100 μM, NMN 500 μM. The format is cell-based, human. The protocol:
Oxygen consumption rates were measured in accordance with manufacturer instructions using Seahorse XF96 analyzer (Seahorse Bioscience). Briefly, 40,000 HUVECs were plated onto XF96 plates and incubated overnight at 37° C./5% CO2. Next day, the media was replaced with XF assay media (DMEM), supplemented with glucose (1 g/L), glutamate (2 mM) and pyruvate (1 mM) and the pH was adjusted to 7.4. NaHS (100 μM) and/or NMN (500 μM) were added at the start of the experiment. Oxygen consumption measurements were made approximately every 8 minutes under basal conditions, and after the addition of oligomycin (1 μM). Experiments were replicated in six wells and averaged for each experimental condition.

In experiment [6] the target is NAMPT (Homo sapiens, UniProt P43490). As to conditions: in vitro (Wang et al. 2014); cited from earlier work.
Sequence of NAMPT (P43490 whole entry, species assumed): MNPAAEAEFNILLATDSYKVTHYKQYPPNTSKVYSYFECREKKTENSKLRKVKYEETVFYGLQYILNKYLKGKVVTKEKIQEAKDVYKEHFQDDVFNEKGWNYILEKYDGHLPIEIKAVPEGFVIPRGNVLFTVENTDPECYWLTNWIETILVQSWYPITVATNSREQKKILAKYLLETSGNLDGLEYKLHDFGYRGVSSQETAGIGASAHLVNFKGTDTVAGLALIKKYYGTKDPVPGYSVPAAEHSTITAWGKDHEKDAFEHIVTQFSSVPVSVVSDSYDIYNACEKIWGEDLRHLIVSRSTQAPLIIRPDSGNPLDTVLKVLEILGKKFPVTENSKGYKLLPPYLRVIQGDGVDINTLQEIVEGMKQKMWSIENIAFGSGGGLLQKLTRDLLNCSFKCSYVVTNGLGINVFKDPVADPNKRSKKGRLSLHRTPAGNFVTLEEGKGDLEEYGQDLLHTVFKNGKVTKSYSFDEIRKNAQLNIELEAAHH
Experiment [7] addresses T1, CD38 (Homo sapiens, UniProt P28907).
T1 sequence (P28907 1-300): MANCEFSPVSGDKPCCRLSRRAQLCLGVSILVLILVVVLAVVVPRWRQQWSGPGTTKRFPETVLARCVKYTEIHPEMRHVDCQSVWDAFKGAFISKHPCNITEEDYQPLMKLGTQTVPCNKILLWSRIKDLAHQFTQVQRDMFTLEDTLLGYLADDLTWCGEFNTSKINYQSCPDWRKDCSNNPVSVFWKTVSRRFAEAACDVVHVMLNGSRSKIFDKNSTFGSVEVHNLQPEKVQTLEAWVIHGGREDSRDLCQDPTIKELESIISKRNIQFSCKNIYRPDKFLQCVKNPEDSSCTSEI
To be noted: in vitro (Esande et al. 2013); cited from earlier work.

With `C[C@H](NC(=O)Cc1cc(F)cc(F)c1)C(=O)N[C@H](C(=O)OC(C)(C)C)c1ccccc1` [DAPT, N—[N-(3,5-Difluorophenacetyl)-L-alanyl]-S-phenylglycine t-butyl ester, reference compound], the “sprout length of spheroids” value in experiment [1] (DAPT 20 μM, NT or SIRT1 siRNA) is listed as “increased sprout length irrespective of SIRT1 levels”.
With `[Na+].[SH-]` [NaHS, sodium hydrosulfide], the “intracellular NAD^+ levels in ECs” value in experiment [2] was “raised intracellular NAD^+ levels in ECs in a dose dependent manner”. Besides, the “cell migration in a scratch assay” value in experiment [3] (NT or SIRT1 siRNA HUVECs, NaHS 0.1 mM, independent of VEGF but dependent on SIRT1) is reported as “increased cell migration”. For the same compound, in experiment [3] (Scr or SIRT1 siRNA HUVECs, H2O2 150 μM 1 h, NaHS 100 μM and/or NMN 500 μM), the “cell migration (percentage of closed gaps)” value is “increased cell migration in a SIRT1-dependent manner”. The SIRT1 protein levels result in experiment [4] is listed as “increased SIRT1 protein levels”. In addition, the “basal OCR” value in experiment [5] is reported as “lowered the basal OCR”.
On to `OC(CNc1ccccc1)Cn1c2ccc(Br)cc2c2cc(Br)ccc21` (stereo not shown) [P7C3], for which, in experiment [6], the “activity of NAMPT” value is reported as “enhances activity of NAMPT in vitro”.
Regarding `Cc1cc(C)c(/C=C2\C(=O)Nc3ccccc32)[nH]1` [SU5416, reference compound], the sprouting of spheroids result in experiment [1] (SU5416 10 μM) is listed as “completely blocked sprouting”.
Turning to `O=c1cc(-c2ccc(O)cc2)oc2cc(O)cc(O)c12` [apigenin, 5,7-dihydroxy-2-(4-hydroxyphenyl)-4H-1-benzopyran-4-one], the CD38 activity result in experiment [7] is given as “inhibitors of CD38 activity in vitro”.
On to `O=c1c(O)c(-c2ccc(O)c(O)c2)oc2cc(O)cc(O)c12` [quercetin, 2-(3,4-dihydroxyphenyl)-3,5,7-trihydroxy-4H-chromen-4-one], for which the CD38 activity entry in experiment [7] is given as “inhibitors of CD38 activity in vitro”.

Source of the values: patent US12616713B2, “Methods for enhancing vascular density” (priority 2016, dated 2026).
